Data as given in US6165770A, “Alkaline stable amylase from Thermoalcalibacter” (Novo Nordisk A/S, priority 1996, dated 2000).
Where a name gives a salt, the structure may show the parent alone.

Molecular target: T1, α-amylase from Thermoalcalibacter bogoriae (Anaerobranca gottschalkii, UniProt Q5I942)
T1 sequence (Q5I942 24-532): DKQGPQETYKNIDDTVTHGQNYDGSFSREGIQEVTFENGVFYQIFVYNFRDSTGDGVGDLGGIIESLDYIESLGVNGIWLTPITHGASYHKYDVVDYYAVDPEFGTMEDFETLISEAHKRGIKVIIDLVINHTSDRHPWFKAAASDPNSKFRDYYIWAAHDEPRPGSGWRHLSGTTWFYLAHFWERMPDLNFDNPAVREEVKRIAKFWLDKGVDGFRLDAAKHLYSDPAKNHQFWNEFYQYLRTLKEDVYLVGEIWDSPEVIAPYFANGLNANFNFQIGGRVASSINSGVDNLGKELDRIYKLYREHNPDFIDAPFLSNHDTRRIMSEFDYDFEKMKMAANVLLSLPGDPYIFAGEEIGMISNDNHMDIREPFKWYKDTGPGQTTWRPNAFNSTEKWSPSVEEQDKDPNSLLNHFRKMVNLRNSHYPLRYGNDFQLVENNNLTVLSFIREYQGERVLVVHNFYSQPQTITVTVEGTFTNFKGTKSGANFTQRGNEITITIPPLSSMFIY
Experiment: Effect of metal ions and chemical reagents on amylase activity
Type: biochemical
Description: The effect of metal ions on the activity of the amylase of the present invention was examined by pre-incubating the enzyme together with metal ions for 30 min. at 65° C., pH 8.0 in a substrate solution containing (wt/vol) soluble starch (0.5%). Subsequently an enzyme assay was performed at 65° C. for 30 min in order to determine the residual activity of the amylase. For further details see working example herein (vide infra) and FIG. 4.
The amylase activity was measured at pH 8.0 -higher pH would interfere with metal ion solutions- and 65° C. in presence of various metal ions at 1 mM, 2 mM and 5 mM concentration and in presence of some chemical reagents (FIG. 4).

[1] = pH 8.0, 65° C., 1 mM, 2 mM and 5 mM

SMILES | effect of metal ions on amylase activity [1] | also measured
[Co+2] [Co^2+] | not or only slightly inhibited | 
NCCc1ccc(S(=O)(=O)F)cc1 [Pefabloc SC] |  | effect of chemical reagents on amylase activity at 5 mM (pH 8.0, 65° C.): did not interfer
N=C(N)N [Guanidine-HCl] |  | effect of chemical reagents on amylase activity at 5 mM (pH 8.0, 65° C.): stimulatory effect
[Fe+2] [Fe^2+] | Strong inhibition | 
[Zn+2] [Zn^2+] | Moderate inhibition | 
[Ni+2] [Ni^2+] | Moderate inhibition | 
CCCCCCCCCCCCOS(=O)(=O)O [SDS] |  | effect of chemical reagents on amylase activity at 5 mM (pH 8.0, 65° C.): totally inhibited
O=C(O)CN(CCN(CC(=O)O)CC(=O)O)CC(=O)O [EDTA] |  | effect of metal ions on amylase activity (pH 8): not or only slightly inhibited
[V+4] [V^4+] | Strong inhibition | 
[Ca+2] [Ca^2+] | not or only slightly inhibited | 
[Cu+2] [Cu^2+] | Strong inhibition | 
[Mg+2] [Mg^2+] | Moderate inhibition | 
[Cr+6] [Cr^6+] | Strong inhibition | 
[Mn+2] [Mn^2+] | moderate stimulation | 
OC(CS)C(O)CS (stereo not drawn) [DTT] |  | effect of chemical reagents on amylase activity at 5 mM (pH 8.0, 65° C.): totally inhibited
